Measured values: patent US20260224528A1, “PSILOCIN FORMULATIONS” (Eleusis Therapeutics US, Inc., priority 2023, published 2026)

Assay: Stability of DS in aqueous solution
Format: physicochemical
Settings: pH range of 4 to 9; rapid degradation and discoloration
Description: The goal of this study was to develop an isotonic stable formulation with the psilocin benzoate Drug Substance (DS) concentration ranging from 0.5 to 3.0 mg/mL (mg free base psilocin) as a bulk sterile solution, having a pH in the range of 4 to 9 in a single use glass vial suitable for IV injection. […] This led to the development of a formulation of psilocin benzoate containing antioxidants, buffers, pH adjustment.

Compound: CN(C)CCc1c[nH]c2cccc(O)c12.O=C(O)c1ccccc1 [DS, psilocin benzoate]
- Stability in aqueous solution: short stability in aqueous solution
